The target of assay [1] is T1, indoleamine 2,3-dioxygenase (IDO1) (Homo sapiens, UniProt P14902). Description: PBMC IDOi assay (kynurenine by mass spectrometry). It counts as cell-based. Conditions: IFN-γ and LPS stimulated human PBMC, 2 days, kynurenine detected by mass spectrometry; read-out: PBMC pIC50 (converted). On the procedure: (§1) Brief descriptions of the cellular assays are provided following the table.
(§2) Compounds of the present invention were tested via high-throughput cellular assays utilizing detection of kynurenine via mass spectrometry and cytotoxicity as end-points. For the mass spectrometry and cytotoxicity assays, human peripheral blood mononuclear cells (PBMC) (PB003F; AllCells®, Alameda, Calif.) were stimulated with human interferon-γ (IFN-γ) (Sigma-Aldrich Corporation, St. Louis, Mo.) and lipopolysaccharide from Salmonella minnesota (LPS) (Invivogen, San Diego, Calif.) to induce the expression of indoleamine 2,3-dioxygenase (IDO1). Compounds with IDO1 inhibitory properties decreased the amount of kynurenine produced by the cells via the tryptophan catabolic pathway. Cellular toxicity due to the effect of compound treatment was measured using CellTiter-Glo® reagent (CTG) (Promega Corporation, Madison, Wis.), which is based on luminescent detection of ATP, an indicator of metabolically active cells.
(§3) In preparation for the assays, test compounds were serially diluted 3-fold in DMSO from a typical top concentration of 5 mM and plated at 0.5 μL in 384-well, polystyrene, clear bottom, tissue culture treated plates with lids (Greiner Bio-One, Kremsmünster, Austria) to generate 11-point dose response curves. Low control wells (0% kynurenine or 100% cytotoxicity) contained either 0.5 μL of DMSO in the presence of unstimulated (−IFN-γ/−LPS) PBMCs for the mass spectrometry assay or 0.5 μL of DMSO in the absence of cells for the cytotoxicity assay, and high control wells (100% kynurenine or 0% cytotoxicity) contained 0.5 μL of DMSO in the presence of stimulated (+IFN-γ/+LPS) PBMCs for both the mass spectrometry and cytotoxicity assays.
Frozen stocks of PBMCs were washed and recovered in RPMI 1640 medium (Thermo Fisher Scientific, Inc., Waltham, Mass.) supplemented with 10% v/v heat-inactivated fetal bovine serum (FBS) (Thermo Fisher Scientific, Inc., Waltham, Mass.), and 1× penicillin-streptomycin antibiotic solution (Thermo Fisher Scientific, Inc., Waltham, Mass.). The cells were diluted to 1,000,000 cells/mL in the supplemented RPMI 1640 medium. 50 μL of either the cell suspension, for the mass spectrometry assay, or medium alone, for the cytotoxicity assay, were added to the low control wells, on the previously prepared 384-well compound plates, resulting in 50,000 cells/well or 0 cells/well respectively. IFN-γ and LPS were added to the remaining cell suspension at final concentrations of 100 ng/ml and 50 ng/ml respectively, and 50 μL of the stimulated cells were added to all remaining wells on the 384-well compound plates. The plates, with lids, were then placed in a 37° C., 5% CO2 humidified incubator for 2 days.
Following incubation, the 384-well plates were removed from the incubator and allowed to equilibrate to room temperature for 30 minutes. For the cytotoxicity assay, CellTiter-Glo® was prepared according to the manufacturer's instructions, and 40 μL were added to each plate well. After a twenty minute incubation at room temperature, luminescence was read on an EnVision® Multilabel Reader (PerkinElmer Inc., Waltham, Mass.). For the mass spectrometry assay, 10 μL of supernatant from each well of the compound-treated plates were added to 40 μL of acetonitrile, containing 10 μM of an internal standard for normalization, in 384-well, polypropylene, V-bottom plates (Greiner Bio-One, Kremsmünster, Austria) to extract the organic analytes. Following centrifugation at 2000 rpm for 10 minutes, 10 μL from each well of the acetonitrile extraction plates were added to 90 μL of sterile, distilled H2O in 384-well, polypropylene, V-bottom plates for analysis of kynurenine and the internal standard on the RapidFire 300 (Agilent Technologies, Santa Clara, Calif.) and 4000 QTRAP MS (SCIEX, Framingham, Mass.). […]

Assay [2] deals with T1, indoleamine 2,3-dioxygenase (IDO1). Description: HeLa IDOi assay (kynurenine by mass spectrometry). Format: cell-based. Set-up: human epithelial HeLa cells (CCL-2; host or cells: HeLa cells stimulated with human IFN-γ. Conditions: IFN-γ stimulated HeLa cells, 2 days, kynurenine detected by mass spectrometry; read-out: HeLa pIC50 (converted). The protocol:
as §1
as §2, with “epithelial HeLa” for “peripheral blood mononuclear”, “(CCL-2; ATCC®, Manassas, Va.)” for “(PBMC) (PB003F; AllCells®, Alameda, Calif.)”, “Mo.)” for “Mo.) and lipopolysaccharide from Salmonella minnesota (LPS) (Invivogen, San Diego, Calif.)”
as §3, with “(−IFN-γ) HeLa cells” for “(−IFN-γ/−LPS) PBMCs”, “(+IFN-γ) HeLa cells” for “(+IFN-γ/+LPS) PBMCs”
Frozen stocks of HeLa cells were washed and recovered in DMEM high glucose medium with HEPES (Thermo Fisher Scientific, Inc., Waltham, Mass.) supplemented with 10% v/v certified fetal bovine serum (FBS) (Thermo Fisher Scientific, Inc., Waltham, Mass.), and 1× penicillin-streptomycin antibiotic solution (Thermo Fisher Scientific, Inc., Waltham, Mass.). The cells were diluted to 100,000 cells/mL in the supplemented DMEM medium. 50 μL of either the cell suspension, for the mass spectrometry assay, or medium alone, for the cytotoxicity assay, were added to the low control wells, on the previously prepared 384-well compound plates, resulting in 5,000 cells/well or 0 cells/well respectively. IFN-γ was added to the remaining cell suspension at a final concentration of 10 nM, and 50 μL of the stimulated cells were added to all remaining wells on the 384-well compound plates. The plates, with lids, were then placed in a 37° C., 5% CO2 humidified incubator for 2 days.
Following incubation, the 384-well plates were removed from the incubator and allowed to equilibrate to room temperature for 30 minutes. For the cytotoxicity assay, CellTiter-Glo® was prepared according to the manufacturer's instructions, and 10 μL were added to each plate well. After a twenty minute incubation at room temperature, luminescence was read on an EnVision® Multilabel Reader (PerkinElmer Inc., Waltham, Mass.). For the mass spectrometry assay, 10 μL of supernatant from each well of the compound-treated plates were added to 40 μL of acetonitrile, containing 10 μM of an internal standard for normalization, in 384-well, polypropylene, V-bottom plates (Greiner Bio-One, Kremsmünster, Austria) to extract the organic analytes. Following centrifugation at 2000 rpm for 10 minutes, 10 μL from each well of the acetonitrile extraction plates were added to 90 μL of sterile, distilled H2O in 384-well, polypropylene, V-bottom plates for analysis of kynurenine and the internal standard on the RapidFire 300 (Agilent Technologies, Santa Clara, Calif.) and 4000 QTRAP MS (SCIEX, Framingham, Mass.). MS data were integrated using Agilent Technologies' RapidFire Integrator software, and data were normalized for analysis as a ratio of kynurenine to the internal standard. […]

The structures appear in SMILES notation.

T1 sequence (P14902 whole entry): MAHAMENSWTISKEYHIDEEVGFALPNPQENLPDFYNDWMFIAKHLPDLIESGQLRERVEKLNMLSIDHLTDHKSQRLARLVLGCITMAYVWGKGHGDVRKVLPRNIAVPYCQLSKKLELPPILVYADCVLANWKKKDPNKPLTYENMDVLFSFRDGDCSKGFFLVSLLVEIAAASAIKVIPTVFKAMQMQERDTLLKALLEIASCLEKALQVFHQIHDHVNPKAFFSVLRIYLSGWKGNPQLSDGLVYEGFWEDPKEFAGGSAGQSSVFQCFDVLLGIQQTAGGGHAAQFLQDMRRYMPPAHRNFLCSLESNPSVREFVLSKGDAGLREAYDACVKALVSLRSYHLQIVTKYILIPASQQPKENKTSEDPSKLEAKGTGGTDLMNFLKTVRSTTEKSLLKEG

As to `Cc1ccc(CC(=O)Nc2cc(-c3ccccc3-c3nn[nH]n3)ccc2SC(C)(C)C)cc1` [Example 1, N-(4-(tert-butylthio)-2′-(2H-tetrazol-5-yl)-[1,1′-biphenyl]-3-yl)-2-(p-tolyl)acetamide], the IC50 in assay [1] is 12.6 nM; in assay [2], 15.8 nM.

With `Cc1ccc(CC(=O)Nc2cc(-c3ccccc3C(=O)O)ccc2SC(C)(C)C)cc1` [Example 4, 4′-(tert-Butylthio)-3′-(2-(p-tolyl)acetamido)-[1,1′-biphenyl]-2-carboxylic acid], the IC50 in assay [1] was 794 nM; in assay [2], 316 nM.

With `Cc1ccc(CC(=O)Nc2cc(-c3ccccc3-c3nn[nH]n3)ccc2Sc2ccccc2)cc1` [Example 10], the IC50 in assay [1] was 126 nM; in assay [2] it was 251 nM. The like results for `Cc1ccc(NC(=O)Nc2cc(-c3ccccc3-c3nn[nH]n3)ccc2SC(C)(C)C)cc1` [Example 13, 1-(4-(tert-Butylthio)-2′-(2H-tetrazol-5-yl)-[1,1′-biphenyl]-3-yl)-3-(p-tolyl)urea] were, in that order, 79.4 nM and 398 nM.

On to `Cc1ccc(NC(=O)Nc2cc(-c3ccccc3C(=O)O)ccc2SC(C)(C)C)cc1` [Example 14, 4′-(tert-Butylthio)-3′-(3-(p-tolyl)ureido)-[1,1′-biphenyl]-2-carboxylic Acid], for which the IC50 in assay [1] was 1580 nM. As for `Cc1ccc(CC(=O)Nc2cc(-c3ccccc3-c3nn[nH]n3)ccc2S(=O)(=O)c2ccccc2)cc1` [Example 15, N-(4-(phenylsulfonyl)-2′-(2H-tetrazol-5-yl)-[1,1′-biphenyl]-3-yl)-2-(p-tolyl)acetamide], the IC50 in assay [1] and in assay [2] was 2000 nM in each case. On to `Cc1ccccc1CC(=O)Nc1cc(-c2ccccc2-c2nn[nH]n2)ccc1SC(C)(C)C` [Example 19, N-(4-(tert-butylthio)-2′-(2H-tetrazol-5-yl)-[1,1′-biphenyl]-3-yl)-2-(o-tolyl)acetamide], for which the IC50 in assay [1] is 10 nM; in assay [2], 15.8 nM.

Consider `Cc1cccc(CC(=O)Nc2cc(-c3ccccc3-c3nn[nH]n3)ccc2SC(C)(C)C)c1` [Example 20, N-(4-(tert-butylthio)-2′-(2H-tetrazol-5-yl)-[1,1′-biphenyl]-3-yl)-2-(m-tolyl)acetamide], for which the IC50 in assay [1] was 20 nM; in assay [2], 25.1 nM. The matching figures for `CC(C)c1ccc(CC(=O)Nc2cc(-c3ccccc3-c3nn[nH]n3)ccc2SC(C)(C)C)cc1` [Example 27, N-(4-(tert-butylthio)-2′-(2H-tetrazol-5-yl)-[1,1′-biphenyl]-3-yl)-2-(4-isopropylphenyl)acetamide]: 3.16 nM and 3.98 nM. With `Cc1ccc(CC(=O)Nc2cc(C(C)CC(=O)O)ccc2SC(C)(C)C)cc1` (stereo not drawn) [Example 44, 3-(4-(tert-Butylthio)-3-(2-(p-tolyl)acetamido)phenyl)butanoic Acid], the IC50 in assay [1] was 3980 nM. For `CC(=O)OCn1nnc(-c2ccccc2-c2ccc(SC(C)(C)C)c(NC(=O)Cc3ccc(C)cc3)c2)n1` [Example 57, (5-(4′-(tert-Butylthio)-3′-(2-(p-tolyl)acetamido)-[1,1′-biphenyl]-2-yl)-2H-tetrazol-2-yl)methyl Acetate], in assay [2], the IC50 is 25.1 nM. The same measure, in the same setting: to `CC(=O)OCn1nnnc1-c1ccccc1-c1ccc(SC(C)(C)C)c(NC(=O)Cc2ccc(C)cc2)c1` [Example 58, (5-(4′-(tert-butylthio)-3′-(2-(p-tolyl)acetamido)-[1,1′-biphenyl]-2-yl)-1H-tetrazol-1-yl)methyl Acetate] belongs 39.8 nM; to `COCn1nnc(-c2ccccc2-c2ccc(SC(C)(C)C)c(NC(=O)Cc3ccc(C)cc3)c2)n1` [Example 59, N-(4-(tert-butylthio)-2′-(2-(methoxymethyl)-2H-tetrazol-5-yl)-[1,1′-biphenyl]-3-yl)-2-(p-tolyl)acetamide], 398 nM.

On to `COCn1nnnc1-c1ccccc1-c1ccc(SC(C)(C)C)c(NC(=O)Cc2ccc(C)cc2)c1` [Example 60, N-(4-(tert-butylthio)-2′-(1-(methoxymethyl)-1H-tetrazol-5-yl)-[1,1′-biphenyl]-3-yl)-2-(p-tolyl)acetamide], for which the IC50 in assay [2] is 63.1 nM. In the case of `Cc1ccc(CC(=O)Nc2cc(-c3ccccc3-c3nnn(C)n3)ccc2SC(C)(C)C)cc1` [Example 61, N-(4-(tert-butylthio)-2′-(2-methyl-2H-tetrazol-5-yl)-[1,1′-biphenyl]-3-yl)-2-(p-tolyl)acetamide], the IC50 in assay [2] is 631 nM.

Turning to `Cc1ccc(CC(=O)Nc2cc(-c3ccccc3-c3nnnn3C)ccc2SC(C)(C)C)cc1` [Example 62, N-(4-(tert-butylthio)-2′-(1-methyl-1H-tetrazol-5-yl)-[1,1′-biphenyl]-3-yl)-2-(p-tolyl)acetamide], the IC50 in assay [2] is 501 nM.

For the origin of these results see patent US10538495B2, “Modulators of indoleamine 2,3-dioxygenase” (GLAXOSMITHKLINE INTELLECTUAL PROPERTY DEVELOPMENT LIMITED, priority 2016, dated 2020).
